{"source": "paper PMC11427369", "about": "(Frontiers in Pharmacology, 2024)", "key": {"PA63": {"biological_target": "T1, PA63 (Bacillus anthracis, UniProt P13423)", "T1 construct": "gene pagA", "T1 sequence (P13423 197-764 limits assumed)": "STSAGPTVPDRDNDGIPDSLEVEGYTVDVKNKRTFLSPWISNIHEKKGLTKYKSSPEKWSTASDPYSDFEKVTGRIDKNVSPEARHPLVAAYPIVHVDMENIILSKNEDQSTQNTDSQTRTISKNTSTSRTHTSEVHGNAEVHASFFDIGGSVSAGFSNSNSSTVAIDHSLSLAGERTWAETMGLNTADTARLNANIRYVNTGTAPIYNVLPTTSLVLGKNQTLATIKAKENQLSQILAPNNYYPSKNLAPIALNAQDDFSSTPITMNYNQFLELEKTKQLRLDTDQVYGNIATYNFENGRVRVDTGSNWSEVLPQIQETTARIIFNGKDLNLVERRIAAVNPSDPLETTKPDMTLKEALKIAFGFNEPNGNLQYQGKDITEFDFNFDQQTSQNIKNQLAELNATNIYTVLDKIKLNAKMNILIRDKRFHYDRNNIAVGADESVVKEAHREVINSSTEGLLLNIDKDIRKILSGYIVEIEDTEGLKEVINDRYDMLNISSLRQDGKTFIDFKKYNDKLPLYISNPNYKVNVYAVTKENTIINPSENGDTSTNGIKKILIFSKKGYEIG", "format": "biochemical"}, "C2IIa": {"biological_target": "C2IIa (Clostridium botulinum, UniProt O86171)", "sequence (O86171 182-721 limits assumed)": "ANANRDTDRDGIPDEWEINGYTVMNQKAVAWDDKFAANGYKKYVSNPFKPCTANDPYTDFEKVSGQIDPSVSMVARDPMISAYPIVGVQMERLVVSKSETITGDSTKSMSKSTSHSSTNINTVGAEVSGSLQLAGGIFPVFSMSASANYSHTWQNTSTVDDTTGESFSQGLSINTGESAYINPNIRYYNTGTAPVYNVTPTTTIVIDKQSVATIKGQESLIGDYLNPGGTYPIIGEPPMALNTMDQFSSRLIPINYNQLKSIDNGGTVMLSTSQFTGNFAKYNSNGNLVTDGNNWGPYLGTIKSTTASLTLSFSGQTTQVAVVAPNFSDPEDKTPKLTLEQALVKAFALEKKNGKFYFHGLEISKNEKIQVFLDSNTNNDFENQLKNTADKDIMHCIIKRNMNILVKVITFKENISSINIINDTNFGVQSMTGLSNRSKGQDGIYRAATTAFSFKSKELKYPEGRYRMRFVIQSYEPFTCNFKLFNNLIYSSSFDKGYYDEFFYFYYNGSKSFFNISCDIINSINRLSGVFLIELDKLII", "format": "biochemical"}}}
{"smiles": "CCN(CC)C(=S)SSC(=S)N(CC)CC", "note": "[disulfiram]", "values": [{"measurement": "pore conductance block, planar lipid bilayer", "setting": "PA63", "value": "addition of DSF immediately blocked any current flow, leading to zero level of conductance"}, {"measurement": "pore conductance block, planar lipid bilayer", "setting": "C2IIa", "value": "addition of DSF led to an immediate block of any current flowing"}]}
